Laboratory results published in ChEMBL document CHEMBL4507276 (2021).

How the values were obtained:
[1] = target: Ribosomal protein S6 kinase alpha-5 (Homo sapiens) (UniProt O75582); conditions: Compound concentration 1000.0 nM
[2] = target: Dual specificity mitogen-activated protein kinase kinase 4 (Homo sapiens) (UniProt P45985); conditions: Compound concentration 1000.0 nM
[3] = target: Eukaryotic translation initiation factor 2-alpha kinase 1 (Homo sapiens) (UniProt Q9BQI3); conditions: Compound concentration 1000.0 nM
[4] = target: Calcium/calmodulin-dependent protein kinase type II subunit gamma (Homo sapiens) (UniProt Q13555); conditions: Compound concentration 1000.0 nM
[5] = target: Protein-tyrosine kinase 6 (Homo sapiens) (UniProt Q13882); conditions: Compound concentration 1000.0 nM
[6] = target: Cyclin-dependent kinase 3 (Homo sapiens) (UniProt Q00526); conditions: Compound concentration 1000.0 nM
Cyclin-dependent kinase 3 (Homo sapiens), sequence (Q00526 whole entry, looked up): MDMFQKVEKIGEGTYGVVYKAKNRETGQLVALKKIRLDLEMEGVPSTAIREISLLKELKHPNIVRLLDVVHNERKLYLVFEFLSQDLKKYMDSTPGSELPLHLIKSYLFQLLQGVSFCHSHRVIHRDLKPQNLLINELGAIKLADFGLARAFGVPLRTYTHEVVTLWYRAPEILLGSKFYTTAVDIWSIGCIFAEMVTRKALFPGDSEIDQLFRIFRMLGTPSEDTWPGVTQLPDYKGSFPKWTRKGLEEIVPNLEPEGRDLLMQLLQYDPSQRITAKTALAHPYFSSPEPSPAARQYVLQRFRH

[7] = target: Serine/threonine-protein kinase pim-1 (Homo sapiens) (UniProt P11309); conditions: Compound concentration 1000.0 nM
[8] = tested on: Tyrosine-protein kinase ABL1 (Homo sapiens), P00519 [H396P]; conditions: Compound concentration 1000.0 nM
[9] = target: Cyclin-dependent kinase 4 (Homo sapiens) (UniProt P11802); conditions: Compound concentration 1000.0 nM
[10] = tested on: Mast/stem cell growth factor receptor Kit (Homo sapiens), P10721 [V559D,V654A]; conditions: Compound concentration 1000.0 nM
[11] = target: Serine/threonine-protein kinase NIM1 (Homo sapiens) (UniProt Q8IY84); conditions: Compound concentration 1000.0 nM
[12] = target: Cyclin-dependent kinase-like 3 (Homo sapiens) (UniProt Q8IVW4); conditions: Compound concentration 1000.0 nM
Cyclin-dependent kinase-like 3 (Homo sapiens), sequence (Q8IVW4 whole entry, looked up): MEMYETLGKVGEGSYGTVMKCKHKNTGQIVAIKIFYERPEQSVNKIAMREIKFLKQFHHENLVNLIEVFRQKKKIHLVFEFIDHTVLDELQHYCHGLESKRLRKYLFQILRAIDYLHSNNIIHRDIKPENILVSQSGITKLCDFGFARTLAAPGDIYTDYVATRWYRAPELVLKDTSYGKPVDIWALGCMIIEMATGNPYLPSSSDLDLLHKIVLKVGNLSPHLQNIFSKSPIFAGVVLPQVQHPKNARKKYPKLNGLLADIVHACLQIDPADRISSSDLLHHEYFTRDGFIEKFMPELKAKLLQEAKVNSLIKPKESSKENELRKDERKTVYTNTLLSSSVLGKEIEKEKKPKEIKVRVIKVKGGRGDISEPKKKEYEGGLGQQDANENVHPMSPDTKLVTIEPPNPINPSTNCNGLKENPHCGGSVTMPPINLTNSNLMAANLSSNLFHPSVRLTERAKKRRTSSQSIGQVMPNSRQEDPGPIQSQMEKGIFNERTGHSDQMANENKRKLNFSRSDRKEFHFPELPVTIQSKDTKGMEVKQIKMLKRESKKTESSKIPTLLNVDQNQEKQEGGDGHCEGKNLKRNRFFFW

[13] = target: Activated CDC42 kinase 1 (Homo sapiens) (UniProt Q07912); conditions: Compound concentration 1000.0 nM
Activated CDC42 kinase 1 (Homo sapiens), sequence (Q07912 whole entry, looked up): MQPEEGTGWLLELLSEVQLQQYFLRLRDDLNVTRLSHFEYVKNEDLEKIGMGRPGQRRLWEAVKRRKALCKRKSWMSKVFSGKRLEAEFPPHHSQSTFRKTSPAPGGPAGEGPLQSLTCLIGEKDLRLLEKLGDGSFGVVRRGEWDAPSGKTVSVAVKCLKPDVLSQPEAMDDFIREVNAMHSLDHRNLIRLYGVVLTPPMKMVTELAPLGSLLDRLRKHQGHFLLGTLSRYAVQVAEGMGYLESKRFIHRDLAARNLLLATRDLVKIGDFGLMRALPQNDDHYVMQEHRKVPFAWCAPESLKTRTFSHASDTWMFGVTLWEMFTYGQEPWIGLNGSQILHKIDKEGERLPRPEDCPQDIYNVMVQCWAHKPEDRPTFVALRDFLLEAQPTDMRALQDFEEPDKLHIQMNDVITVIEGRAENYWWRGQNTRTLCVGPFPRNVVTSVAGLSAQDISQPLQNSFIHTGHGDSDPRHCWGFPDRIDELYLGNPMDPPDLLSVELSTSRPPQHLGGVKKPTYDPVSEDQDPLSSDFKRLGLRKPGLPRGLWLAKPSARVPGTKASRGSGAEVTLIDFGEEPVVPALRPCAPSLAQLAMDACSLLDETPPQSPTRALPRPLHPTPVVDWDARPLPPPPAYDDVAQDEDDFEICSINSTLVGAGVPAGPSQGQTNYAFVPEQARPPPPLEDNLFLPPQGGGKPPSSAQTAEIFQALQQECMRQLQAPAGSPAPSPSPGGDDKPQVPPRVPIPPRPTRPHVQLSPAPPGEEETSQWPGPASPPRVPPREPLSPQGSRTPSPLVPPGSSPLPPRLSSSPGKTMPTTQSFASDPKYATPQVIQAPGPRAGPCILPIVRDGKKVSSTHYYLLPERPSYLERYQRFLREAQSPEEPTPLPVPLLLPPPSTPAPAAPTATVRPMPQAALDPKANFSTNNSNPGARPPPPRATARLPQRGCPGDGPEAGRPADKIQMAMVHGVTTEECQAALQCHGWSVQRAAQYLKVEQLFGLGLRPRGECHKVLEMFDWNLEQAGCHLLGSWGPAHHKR

[14] = target: Cyclin-dependent kinase-like 2 (Homo sapiens) (UniProt Q92772); conditions: Compound concentration 1000.0 nM
[15] = target: Ribosomal protein S6 kinase alpha-4 (Homo sapiens) (UniProt O75676); conditions: Compound concentration 1000.0 nM
[16] = target: Serine/threonine-protein kinase PknB (Mycobacterium tuberculosis) (UniProt P9WI81); conditions: Compound concentration 1000.0 nM
[17] = target: Dual specificity mitogen-activated protein kinase kinase 7 (Homo sapiens) (UniProt O14733); conditions: Compound concentration 1000.0 nM
[18] = target: Non-receptor tyrosine-protein kinase TNK1 (Homo sapiens) (UniProt Q13470); conditions: Compound concentration 1000.0 nM
[19] = target: LIM domain kinase 2 (Homo sapiens) (UniProt P53671); conditions: Compound concentration 1000.0 nM
[20] = target: Fibroblast growth factor receptor 2 (Homo sapiens) (UniProt P21802); conditions: Compound concentration 1000.0 nM
[21] = target: Ephrin type-A receptor 4 (Homo sapiens) (UniProt P54764); conditions: Compound concentration 1000.0 nM
[22] = target: Phosphatidylinositol 4-phosphate 5-kinase type-1 gamma (Homo sapiens) (UniProt O60331); conditions: Compound concentration 1000.0 nM
[23] = target: T1, Activin receptor type-1B (Homo sapiens) (UniProt P36896); conditions: Compound concentration 1000.0 nM
T1 sequence (whole entry): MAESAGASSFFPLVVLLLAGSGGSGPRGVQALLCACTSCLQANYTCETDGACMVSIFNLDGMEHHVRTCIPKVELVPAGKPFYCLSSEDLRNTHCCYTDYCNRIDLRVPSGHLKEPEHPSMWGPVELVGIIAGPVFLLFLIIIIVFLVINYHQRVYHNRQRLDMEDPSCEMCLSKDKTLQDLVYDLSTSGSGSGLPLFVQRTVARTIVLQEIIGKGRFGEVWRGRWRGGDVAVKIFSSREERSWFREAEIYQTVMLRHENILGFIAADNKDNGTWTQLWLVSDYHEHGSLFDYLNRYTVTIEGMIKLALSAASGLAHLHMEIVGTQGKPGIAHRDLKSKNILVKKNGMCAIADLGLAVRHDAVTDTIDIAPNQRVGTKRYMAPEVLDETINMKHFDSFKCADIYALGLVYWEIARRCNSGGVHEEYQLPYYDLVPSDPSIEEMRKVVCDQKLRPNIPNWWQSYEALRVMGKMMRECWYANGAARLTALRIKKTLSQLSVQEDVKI

[24] = target: Angiopoietin-1 receptor (Homo sapiens) (UniProt Q02763); conditions: Compound concentration 1000.0 nM
[25] = target: Tyrosine-protein kinase Fer (Homo sapiens) (UniProt P16591); conditions: Compound concentration 1000.0 nM
[26] = target: Calcium/calmodulin-dependent protein kinase type 1D (Homo sapiens) (UniProt Q8IU85); conditions: Compound concentration 1000.0 nM
Calcium/calmodulin-dependent protein kinase type 1D (Homo sapiens), sequence (Q8IU85 whole entry, looked up): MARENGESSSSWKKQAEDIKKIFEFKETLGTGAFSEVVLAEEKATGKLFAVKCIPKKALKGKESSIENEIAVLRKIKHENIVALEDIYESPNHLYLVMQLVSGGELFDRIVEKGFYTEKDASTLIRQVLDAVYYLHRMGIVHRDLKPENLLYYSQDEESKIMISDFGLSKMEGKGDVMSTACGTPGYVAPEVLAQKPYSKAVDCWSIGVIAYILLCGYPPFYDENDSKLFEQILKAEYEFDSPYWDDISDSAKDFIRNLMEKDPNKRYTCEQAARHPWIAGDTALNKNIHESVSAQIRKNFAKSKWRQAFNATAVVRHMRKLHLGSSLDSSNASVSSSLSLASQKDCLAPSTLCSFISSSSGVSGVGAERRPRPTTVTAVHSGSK

[27] = target: Homeodomain-interacting protein kinase 2 (Homo sapiens) (UniProt Q9H2X6); conditions: Compound concentration 1000.0 nM
[28] = target: Calcium/calmodulin-dependent protein kinase type II subunit beta (Homo sapiens) (UniProt Q13554); conditions: Compound concentration 1000.0 nM
Calcium/calmodulin-dependent protein kinase type II subunit beta (Homo sapiens), sequence (Q13554 whole entry): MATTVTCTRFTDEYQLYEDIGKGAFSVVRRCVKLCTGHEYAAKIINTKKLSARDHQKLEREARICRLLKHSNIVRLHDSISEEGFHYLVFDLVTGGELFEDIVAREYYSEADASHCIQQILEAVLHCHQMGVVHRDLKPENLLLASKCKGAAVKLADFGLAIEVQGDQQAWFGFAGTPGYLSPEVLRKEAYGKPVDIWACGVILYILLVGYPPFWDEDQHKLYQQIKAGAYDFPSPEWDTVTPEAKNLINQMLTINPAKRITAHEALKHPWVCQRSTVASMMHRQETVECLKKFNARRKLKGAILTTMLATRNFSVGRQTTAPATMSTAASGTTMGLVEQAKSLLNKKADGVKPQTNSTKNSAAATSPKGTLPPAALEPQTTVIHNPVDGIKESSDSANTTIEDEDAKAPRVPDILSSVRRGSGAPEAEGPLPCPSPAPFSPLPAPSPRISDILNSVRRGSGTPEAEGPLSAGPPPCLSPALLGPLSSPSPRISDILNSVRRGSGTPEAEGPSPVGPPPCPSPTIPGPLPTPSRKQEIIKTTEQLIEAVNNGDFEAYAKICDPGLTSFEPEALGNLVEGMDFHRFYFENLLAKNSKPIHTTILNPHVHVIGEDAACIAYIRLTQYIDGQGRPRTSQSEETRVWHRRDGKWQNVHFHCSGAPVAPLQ

[29] = target: Serine/threonine-protein kinase 38-like (Homo sapiens) (UniProt Q9Y2H1); conditions: Compound concentration 1000.0 nM
Serine/threonine-protein kinase 38-like (Homo sapiens), sequence (Q9Y2H1 2-464 limits assumed): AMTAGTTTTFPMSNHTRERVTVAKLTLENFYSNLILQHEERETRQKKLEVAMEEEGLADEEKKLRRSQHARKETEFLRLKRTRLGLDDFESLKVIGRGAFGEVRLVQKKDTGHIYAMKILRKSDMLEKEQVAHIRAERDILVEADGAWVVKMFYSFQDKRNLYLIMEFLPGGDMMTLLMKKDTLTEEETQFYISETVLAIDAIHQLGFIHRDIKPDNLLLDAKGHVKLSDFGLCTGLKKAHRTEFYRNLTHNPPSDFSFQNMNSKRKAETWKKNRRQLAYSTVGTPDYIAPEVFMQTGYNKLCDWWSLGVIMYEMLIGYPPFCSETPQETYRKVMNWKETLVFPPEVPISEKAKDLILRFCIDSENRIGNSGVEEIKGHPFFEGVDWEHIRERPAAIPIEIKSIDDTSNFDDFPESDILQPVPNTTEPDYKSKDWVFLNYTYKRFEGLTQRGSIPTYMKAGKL

[30] = target: Mitogen-activated protein kinase 15 (Homo sapiens) (UniProt Q8TD08); conditions: Compound concentration 1000.0 nM
[31] = target: T2, 5-hydroxytryptamine receptor 1A (Homo sapiens) (UniProt P08908); conditions: Compound concentration 10.0 uM
T2 sequence (whole entry): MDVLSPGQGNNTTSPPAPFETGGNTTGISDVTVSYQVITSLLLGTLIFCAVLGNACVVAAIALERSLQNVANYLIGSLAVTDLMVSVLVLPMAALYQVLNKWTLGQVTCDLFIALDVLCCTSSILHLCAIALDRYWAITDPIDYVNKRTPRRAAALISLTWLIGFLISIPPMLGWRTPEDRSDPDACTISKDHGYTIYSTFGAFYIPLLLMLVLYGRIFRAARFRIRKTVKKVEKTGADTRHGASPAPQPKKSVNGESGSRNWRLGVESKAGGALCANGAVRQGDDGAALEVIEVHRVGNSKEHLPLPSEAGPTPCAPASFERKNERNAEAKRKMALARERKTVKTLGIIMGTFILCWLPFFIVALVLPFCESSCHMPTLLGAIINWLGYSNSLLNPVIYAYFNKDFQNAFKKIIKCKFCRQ

[32] = target: Tyrosine-protein kinase ABL1 (Homo sapiens) (UniProt P00519); conditions: Compound concentration 1000.0 nM
[33] = target: Sigma intracellular receptor 2 (Homo sapiens) (UniProt Q5BJF2); conditions: Compound concentration 10.0 uM
Sigma intracellular receptor 2 (Homo sapiens), sequence (Q5BJF2 whole entry): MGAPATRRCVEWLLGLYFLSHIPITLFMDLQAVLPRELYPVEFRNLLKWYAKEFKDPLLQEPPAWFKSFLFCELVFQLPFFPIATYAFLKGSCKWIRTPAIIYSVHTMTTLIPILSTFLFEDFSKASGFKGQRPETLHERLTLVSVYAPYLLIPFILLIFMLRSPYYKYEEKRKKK

Dual specificity mitogen-activated protein kinase kinase 4 (Homo sapiens), sequence (P45985 whole entry): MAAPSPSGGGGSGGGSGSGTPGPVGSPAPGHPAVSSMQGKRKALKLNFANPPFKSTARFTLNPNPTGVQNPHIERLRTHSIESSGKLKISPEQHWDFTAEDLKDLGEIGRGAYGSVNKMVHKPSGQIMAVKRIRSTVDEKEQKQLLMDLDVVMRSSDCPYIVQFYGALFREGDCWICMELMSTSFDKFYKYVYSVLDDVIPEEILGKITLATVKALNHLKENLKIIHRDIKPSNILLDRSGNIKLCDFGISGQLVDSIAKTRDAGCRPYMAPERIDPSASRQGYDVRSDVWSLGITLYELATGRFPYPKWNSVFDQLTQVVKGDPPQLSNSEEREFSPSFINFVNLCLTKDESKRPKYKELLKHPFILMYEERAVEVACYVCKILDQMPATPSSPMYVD
Ribosomal protein S6 kinase alpha-5 (Homo sapiens), sequence (O75582 whole entry, looked up): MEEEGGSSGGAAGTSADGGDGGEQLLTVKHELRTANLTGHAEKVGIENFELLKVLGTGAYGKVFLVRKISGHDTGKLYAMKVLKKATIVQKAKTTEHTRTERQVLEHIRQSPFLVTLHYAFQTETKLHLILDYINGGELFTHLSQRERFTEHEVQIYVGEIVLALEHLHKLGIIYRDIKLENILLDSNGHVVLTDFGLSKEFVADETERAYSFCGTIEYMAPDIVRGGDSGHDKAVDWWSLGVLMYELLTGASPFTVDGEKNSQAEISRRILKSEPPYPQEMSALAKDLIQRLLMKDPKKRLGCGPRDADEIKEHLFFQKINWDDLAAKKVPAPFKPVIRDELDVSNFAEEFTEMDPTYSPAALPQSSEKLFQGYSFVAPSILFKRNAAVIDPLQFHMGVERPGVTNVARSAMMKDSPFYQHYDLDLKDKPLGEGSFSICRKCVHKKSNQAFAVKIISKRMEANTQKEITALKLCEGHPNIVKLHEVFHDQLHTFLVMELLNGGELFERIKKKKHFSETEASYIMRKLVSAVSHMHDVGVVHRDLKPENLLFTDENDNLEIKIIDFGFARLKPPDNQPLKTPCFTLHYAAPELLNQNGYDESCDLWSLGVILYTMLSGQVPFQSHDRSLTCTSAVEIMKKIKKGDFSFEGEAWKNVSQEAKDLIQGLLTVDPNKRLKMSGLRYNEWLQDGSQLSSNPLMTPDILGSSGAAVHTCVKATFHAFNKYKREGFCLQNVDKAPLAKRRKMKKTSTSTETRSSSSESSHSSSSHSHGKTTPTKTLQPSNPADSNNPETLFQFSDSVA

CN(C)C(=O)Cn1cc(-c2nc(C3(c4ccc(-c5cnc(N)nc5)cc4)CC3)no2)cn1 [BI 0153]
inactive: residual activity [1] 98% | residual activity [2] 93% | residual activity [3] 88% | residual activity [4] 98% | residual activity [5] 100% | residual activity [6] 100% | residual activity [7] 100% | residual activity [8] 100% | residual activity [9] 67% | residual activity [10] 100% | residual activity [11] 83% | residual activity [12] 80% | residual activity [13] 96% | residual activity [14] 100% | residual activity [15] 91% | residual activity [16] 85% | residual activity [17] 87% | residual activity [18] 96% | residual activity [19] 85% | residual activity [20] 100% | residual activity [21] 100% | residual activity [22] 96% | residual activity [23] 84% | residual activity [24] 88% | residual activity [25] 79% | residual activity [26] 100% | residual activity [27] 94% | residual activity [28] 94% | residual activity [29] 81% | residual activity [30] 96% | inhibition [31] 31.5% | residual activity [32] 93% | inhibition [33] 25%

CN(C)C(=O)Cn1cc(-c2nc([C@@](C)(c3ccc(-c4cnc(N)nc4)cc3)C3CC3)no2)cn1 [BI 665915]
inactive: residual activity [1] 93% | residual activity [2] 100% | residual activity [3] 96% | residual activity [4] 100% | residual activity [5] 100% | residual activity [6] 100% | residual activity [7] 100% | residual activity [8] 76% | residual activity [9] 94% | residual activity [10] 93% | residual activity [11] 86% | residual activity [12] 94% | residual activity [13] 91% | residual activity [14] 100% | residual activity [15] 100% | residual activity [16] 100% | residual activity [17] 94% | residual activity [18] 100% | residual activity [19] 85% | residual activity [20] 85% | residual activity [21] 100% | residual activity [22] 100% | residual activity [23] 89% | residual activity [24] 100% | residual activity [25] 94% | residual activity [26] 100% | residual activity [27] 87% | residual activity [28] 96% | residual activity [29] 91% | residual activity [30] 91% | inhibition [31] 6.78% | residual activity [32] 84% | inhibition [33] 10.1%
